From patent publication US20110287059A1, “HONEY ANALYSIS” (COMVITA NEW ZEALAND LIMITED, priority 2008, published 2011)

Assay: Antioxidant activity by ABTS radical assay (Trolox Equivalent Antioxidant Capacity)
Format: biochemical
Conditions: standard
Procedure: Antioxidant activity was determined by the ABTS assay using a spectrophotometric method for antioxidant activity using the ABTS radical assay (expressed as Trolox Equivalent Antioxidant Capacity) based on the method of Miller & Rice-Evans (Miller, N.J.; Rice-Evans, C.A. 1997: Factors influencing the antioxidant activity determined by the ABTS+radical cation assay. Free Radical Research 26(3): 195-199). All samples were diluted with warm water as required to bring into the appropriate range for the assay.

## COC(=O)c1cc(OC)c(O)c(OC)c1 [methylsyringate, methyl syringate]
290 mg/kg
  Antioxidant Activity by ABTS Assay, Average: 85.1 μmole TEAC/100 g

## COc1cc(C(=O)O)cc(OC)c1O [syringic acid]
760 mg/kg
  Antioxidant Activity by ABTS Assay, Average: 499.6 μmole TEAC/100 g

## COc1ccccc1C(=O)O [2-methoxybenzoic, 2-methoxybenzoic acid]
80 mg/kg
  Antioxidant Activity by ABTS Assay, Average: 51.8 μmole TEAC/100 g

## O=C(O)c1cc(O)c(O)c(O)c1 [gallic acid]
700 mg/kg
  Antioxidant Activity by ABTS Assay, Average: 1695.4 μmole TEAC/100 g
